From US10793520B2, “Sulfonylaminobenzamide compound and pest control agent” (Nippon Soda Co., Ltd., priority 2016, dated 2020)

Tested on: Mythimna separata
Test: Efficacy test against Mythimna separata (treated artificial feed)
Conditions: in vivo
Procedure: Five parts of the compound of the present invention, 93.6 parts of dimethylformamide and 1.4 parts of a polyoxyethylene alkyl aryl ether were mixed together and dissolved to obtain an emulsion (1) containing 5% of the active constituent.
The mortality rate was calculated using the following equation. Mortality rate (%)=(number of dead pests/number of test pests)×100
First, 0.8 g of an artificial feed (Insecta LFS, manufactured by Nosan Corporation) and 1 μl of the emulsion (I) were mixed thoroughly, and 0.2 g of the resulting mixture was placed in each of the treatment areas of a plastic test container (volume: 1.4 ml) to complete preparation of a test feed.
Two second-instar larvae of Mythimna separata were inoculated into each treatment area, and the test container was sealed with a plastic lid. The sealed container was placed in a temperature-controlled room at 25° C., and the mortality rate and the amount of feed consumed were determined on the fifth day. The test was repeated. Further, a test performed under the same conditions, but with the exception of excluding the compound of the present invention from the emulsion (1), was used as a control.

## CC(C)C(NC(=O)c1ccc(C(F)(F)F)cc1NS(=O)(=O)C(F)(F)F)c1ccc(Cl)cc1 (racemic) [b-3]
  mortality rate against Mythimna separata, or amount of feed consumed relative to control: 100%, or the amount of feed consumed was 10% or less

## O=C(Nc1cc(C(F)(F)F)cc(C(F)(F)F)c1)c1ccc(Cl)cc1NS(=O)(=O)C(F)(F)F [a-1]
  mortality rate against Mythimna separata, or amount of feed consumed relative to control: 100%, or the amount of feed consumed was 10% or less

## O=C(Nc1ccc(F)c(C(F)(F)F)c1)c1ccc(C(F)(F)F)cc1NS(=O)(=O)C(F)(F)F [a-2]
  mortality rate against Mythimna separata, or amount of feed consumed relative to control: 100%, or the amount of feed consumed was 10% or less

## O=C(Nc1cc(C(F)(F)F)cc(C(F)(F)F)c1)c1ccc(C(F)(F)F)cc1NS(=O)(=O)C(F)(F)F [a-3]
  mortality rate against Mythimna separata, or amount of feed consumed relative to control: 100%, or the amount of feed consumed was 10% or less

## O=C(Nc1ccc(C(F)(F)F)cc1)c1ccc(C(F)(F)F)cc1NS(=O)(=O)C(F)(F)F [a-4]
  mortality rate against Mythimna separata, or amount of feed consumed relative to control: 100%, or the amount of feed consumed was 10% or less

## O=C(Nc1ccc(C(F)(F)F)cc1Cl)c1ccc(C(F)(F)F)cc1NS(=O)(=O)C(F)(F)F [a-7]
  mortality rate against Mythimna separata, or amount of feed consumed relative to control: 100%, or the amount of feed consumed was 10% or less

## O=C(Nc1ccc(C(F)(F)F)cn1)c1ccc(C(F)(F)F)cc1NS(=O)(=O)C(F)(F)F [a-8]
  mortality rate against Mythimna separata, or amount of feed consumed relative to control: 100%, or the amount of feed consumed was 10% or less

## O=C(Nc1ccc(C(F)(F)F)c(Cl)c1)c1ccc(C(F)(F)F)cc1NS(=O)(=O)C(F)(F)F [a-10]
  mortality rate against Mythimna separata, or amount of feed consumed relative to control: 100%, or the amount of feed consumed was 10% or less

## O=C(Nc1cc(C(F)(F)F)ccc1F)c1ccc(C(F)(F)F)cc1NS(=O)(=O)C(F)(F)F [a-11]
  mortality rate against Mythimna separata, or amount of feed consumed relative to control: 100%, or the amount of feed consumed was 10% or less

## O=C(Nc1cccc(OC(F)(F)F)c1)c1ccc(C(F)(F)F)cc1NS(=O)(=O)C(F)(F)F [a-12]
  mortality rate against Mythimna separata, or amount of feed consumed relative to control: 100%, or the amount of feed consumed was 10% or less

## Cc1ccc(NC(=O)c2ccc(C(F)(F)F)cc2NS(=O)(=O)C(F)(F)F)cc1 [a-13]
  mortality rate against Mythimna separata, or amount of feed consumed relative to control: 100%, or the amount of feed consumed was 10% or less

## O=C(Nc1ccc(Cl)cc1)c1ccc(C(F)(F)F)cc1NS(=O)(=O)C(F)(F)F [a-14]
  mortality rate against Mythimna separata, or amount of feed consumed relative to control: 100%, or the amount of feed consumed was 10% or less

## O=C(Nc1ccc(OC(F)(F)F)cc1)c1ccc(C(F)(F)F)cc1NS(=O)(=O)C(F)(F)F [a-15]
  mortality rate against Mythimna separata, or amount of feed consumed relative to control: 100%, or the amount of feed consumed was 10% or less

## O=C(Nc1ccc(F)c(C(F)(F)F)c1)c1cc(F)c(F)cc1NS(=O)(=O)C(F)(F)F [a-16]
  mortality rate against Mythimna separata, or amount of feed consumed relative to control: 100%, or the amount of feed consumed was 10% or less

## O=C(Nc1c(Cl)cc(C(F)(F)F)cc1Cl)c1ccc(C(F)(F)F)cc1NS(=O)(=O)C(F)(F)F [a-18]
  mortality rate against Mythimna separata, or amount of feed consumed relative to control: 100%, or the amount of feed consumed was 10% or less

## O=C(Nc1ncc(C(C(F)(F)F)C(F)(F)F)s1)c1ccc(C(F)(F)F)cc1NS(=O)(=O)C(F)(F)F [a-19]
  mortality rate against Mythimna separata, or amount of feed consumed relative to control: 100%, or the amount of feed consumed was 10% or less

## Cc1cc(C(F)(C(F)(F)F)C(F)(F)F)ccc1NC(=O)c1ccc(C(F)(F)F)cc1NS(=O)(=O)C(F)(F)F [a-20]
  mortality rate against Mythimna separata, or amount of feed consumed relative to control: 100%, or the amount of feed consumed was 10% or less

## CN(c1cc(C(F)(F)F)ccc1C(=O)Nc1ccc(F)c(C(F)(F)F)c1)S(=O)(=O)C(F)(F)F [a-21]
  mortality rate against Mythimna separata, or amount of feed consumed relative to control: 100%, or the amount of feed consumed was 10% or less

## O=C(Nc1ccc(Cl)c(Cl)c1)c1ccc(C(F)(F)F)cc1NS(=O)(=O)C(F)(F)F [a-22]
  mortality rate against Mythimna separata, or amount of feed consumed relative to control: 100%, or the amount of feed consumed was 10% or less

## O=C(Nc1ncc(C(F)(F)F)cc1Cl)c1ccc(C(F)(F)F)cc1NS(=O)(=O)C(F)(F)F [a-23]
  mortality rate against Mythimna separata, or amount of feed consumed relative to control: 100%, or the amount of feed consumed was 10% or less

## O=C(Nc1ccc(OC(F)(F)F)cc1)c1ccc(OC(F)(F)F)cc1NS(=O)(=O)C(F)(F)F [a-24]
  mortality rate against Mythimna separata, or amount of feed consumed relative to control: 100%, or the amount of feed consumed was 10% or less

## O=C(Nc1ccc(S(F)(F)(F)(F)F)cc1)c1ccc(C(F)(F)F)cc1NS(=O)(=O)C(F)(F)F [a-28]
  mortality rate against Mythimna separata, or amount of feed consumed relative to control: 100%, or the amount of feed consumed was 10% or less

## O=C(Nc1ccc(OC(F)(F)F)cc1)c1ccc(Br)cc1NS(=O)(=O)C(F)(F)F [a-29]
  mortality rate against Mythimna separata, or amount of feed consumed relative to control: 100%, or the amount of feed consumed was 10% or less

## O=C(Nc1ccc(OC(F)(F)F)cc1)c1ccc(C(F)(F)F)cc1NS(=O)(=O)CC(F)(F)F [a-30]
  mortality rate against Mythimna separata, or amount of feed consumed relative to control: 100%, or the amount of feed consumed was 10% or less

## O=C(Nc1ccc(OC(F)(F)F)cc1)c1ccc(-n2cncn2)cc1NS(=O)(=O)C(F)(F)F [a-31]
  mortality rate against Mythimna separata, or amount of feed consumed relative to control: 100%, or the amount of feed consumed was 10% or less

## O=C(Nc1ccc(OC(F)(F)F)cc1)c1ccc(-c2ccc(Cl)nc2)cc1NS(=O)(=O)C(F)(F)F [a-32]
  mortality rate against Mythimna separata, or amount of feed consumed relative to control: 100%, or the amount of feed consumed was 10% or less

## O=C(Nc1ccc(OC(F)(F)F)cc1)c1ccc(C(F)(F)F)cc1NS(=O)(=O)C(F)F [a-33]
  mortality rate against Mythimna separata, or amount of feed consumed relative to control: 100%, or the amount of feed consumed was 10% or less

## O=C(Nc1ccc(OC(F)(F)F)cc1)c1ccc(-c2ccc(C(F)(F)F)nc2)cc1NS(=O)(=O)C(F)(F)F [a-34]
  mortality rate against Mythimna separata, or amount of feed consumed relative to control: 100%, or the amount of feed consumed was 10% or less

## O=C(Nc1ccc(OC(F)(F)F)cc1)c1ccc(-c2ccc(C(F)(F)F)cc2)cc1NS(=O)(=O)C(F)(F)F [a-35]
  mortality rate against Mythimna separata, or amount of feed consumed relative to control: 100%, or the amount of feed consumed was 10% or less

## N#Cc1ccc(C(=O)Nc2ccc(C(F)(F)F)cc2)c(NS(=O)(=O)C(F)(F)F)c1 [a-36]
  mortality rate against Mythimna separata, or amount of feed consumed relative to control: 100%, or the amount of feed consumed was 10% or less

## N#Cc1ccc(NC(=O)c2ccc(C(F)(F)F)cc2NS(=O)(=O)C(F)(F)F)cc1C(F)(F)F [a-37]
  mortality rate against Mythimna separata, or amount of feed consumed relative to control: 100%, or the amount of feed consumed was 10% or less

## N#Cc1ccc(C(=O)Nc2ccc(C(F)(F)F)cc2)c(NS(=O)(=O)CC(F)(F)F)c1 [a-38]
  mortality rate against Mythimna separata, or amount of feed consumed relative to control: 100%, or the amount of feed consumed was 10% or less

## N#Cc1ccc(NC(=O)c2ccc(C(F)(F)F)cc2NS(=O)(=O)C(F)(F)F)cc1 [a-39]
  mortality rate against Mythimna separata, or amount of feed consumed relative to control: 100%, or the amount of feed consumed was 10% or less

## N#Cc1ccc(NC(=O)c2ccc(C#N)cc2NS(=O)(=O)C(F)(F)F)cc1 [a-40]
  mortality rate against Mythimna separata, or amount of feed consumed relative to control: 100%, or the amount of feed consumed was 10% or less

## O=C(Nc1ccc(F)c(C(F)(F)F)c1)c1ccc(Cl)cc1NS(=O)(=O)C(F)(F)F [a-41]
  mortality rate against Mythimna separata, or amount of feed consumed relative to control: 100%, or the amount of feed consumed was 10% or less

## O=C(Nc1ccc(OC(F)(F)F)cc1)c1ccc(-c2ccc(C(F)(F)F)cc2Cl)cc1NS(=O)(=O)C(F)(F)F [a-42]
  mortality rate against Mythimna separata, or amount of feed consumed relative to control: 100%, or the amount of feed consumed was 10% or less

## COC(=O)c1cc(Br)ccc1NC(=O)c1ccc(C(F)(F)F)cc1NS(=O)(=O)C(F)(F)F [a-49]
  mortality rate against Mythimna separata, or amount of feed consumed relative to control: 100%, or the amount of feed consumed was 10% or less

## O=C(Nc1ccc([N+](=O)[O-])cc1)c1ccc(C(F)(F)F)cc1NS(=O)(=O)C(F)(F)F [a-50]
  mortality rate against Mythimna separata, or amount of feed consumed relative to control: 100%, or the amount of feed consumed was 10% or less

## N#Cc1cc(Cl)ccc1NC(=O)c1ccc(C(F)(F)F)cc1NS(=O)(=O)C(F)(F)F [a-51]
  mortality rate against Mythimna separata, or amount of feed consumed relative to control: 100%, or the amount of feed consumed was 10% or less

## N#Cc1ccc(NC(=O)c2ccc(C(F)(F)F)cc2NS(=O)(=O)C(F)(F)F)c(F)c1 [a-53]
  mortality rate against Mythimna separata, or amount of feed consumed relative to control: 100%, or the amount of feed consumed was 10% or less

## O=C(Nc1ccc(C(F)(F)F)cc1F)c1ccc(C(F)(F)F)cc1NS(=O)(=O)C(F)(F)F [a-54]
  mortality rate against Mythimna separata, or amount of feed consumed relative to control: 100%, or the amount of feed consumed was 10% or less

## O=C(Nc1ccc(Cl)cc1C(F)(F)F)c1ccc(C(F)(F)F)cc1NS(=O)(=O)C(F)(F)F [a-55]
  mortality rate against Mythimna separata, or amount of feed consumed relative to control: 100%, or the amount of feed consumed was 10% or less

## O=C(Nc1ccnc(OCC(F)(F)F)c1)c1ccc(C(F)(F)F)cc1NS(=O)(=O)C(F)(F)F [a-56]
  mortality rate against Mythimna separata, or amount of feed consumed relative to control: 100%, or the amount of feed consumed was 10% or less

## COC(=O)c1cc(F)ccc1NC(=O)c1ccc(C(F)(F)F)cc1NS(=O)(=O)C(F)(F)F [a-57]
  mortality rate against Mythimna separata, or amount of feed consumed relative to control: 100%, or the amount of feed consumed was 10% or less

## COC(=O)c1cc(C(F)(F)F)ccc1NC(=O)c1ccc(C(F)(F)F)cc1NS(=O)(=O)C(F)(F)F [a-58]
  mortality rate against Mythimna separata, or amount of feed consumed relative to control: 100%, or the amount of feed consumed was 10% or less

## CCOc1cc(C(F)(F)F)ccc1NC(=O)c1ccc(C(F)(F)F)cc1NS(=O)(=O)C(F)(F)F [a-59]
  mortality rate against Mythimna separata, or amount of feed consumed relative to control: 100%, or the amount of feed consumed was 10% or less
